Measurements: article PMC9025336 (Antibiotics, 2022)
≈ marks a conversion by molar mass, not a printed value. Peptide text beside a SMILES is read from it. * marks the point of attachment. Orn(α-tetramethylguanidino) = CN(C)C(=N[C@@H](CCCN)C(=O)*)N(C)C

Columns and labels:
[1] = system: 70S ribosome extract of E. coli Rosetta DE3 pLysS; experiment: Fluorescence polarization, Kd of cf-labeled peptides; format: binding, Escherichia coli; settings: determined for the cf-labeled peptide, 28 °C, 90 min, 95% confidence interval in brackets, triplicate on at least two days, read-out: Kd, Ros
Method: (§1) E. coli BW25113 and E. coli Rosetta pLysS were cultivated in LB medium and harvested at an OD600 of ~4 by centrifugation (5000× g, 30 min, 4 °C). The cell pellets were washed by resuspension in ribosome preparation buffer (20 mmol/L Hepes-KOH, 6 mmol/L MgCl2, 30 mmol/L NH4Cl, pH 7.6, 4°C) and subsequent centrifugation (5000× g, 30 min, 4 °C). Cell pellets were suspended in ribosome preparation buffer ([…]) containing freshly added 2-mercapotethanol (4 mmol/L). Lysozyme was added to the resuspended cells and incubated on ice for 30 min. The cell suspension was disrupted six times using a FastPrep-24^TM 5G instrument (MP Biomedicals, Solon, OH, USA) with BigPrep 50 mL setting (40 s, 4.0 m/s), incubated with DNase I (5 mL/L) on ice for one hour and centrifuged (16,000× g, 30 min, 4 °C). The cell debris was removed from the supernatant by centrifugation (32,000× g, 60 min, 4 °C), and the supernatant was centrifuged again (165,000× g, 17 h, 4 °C). The pellet was resuspended in ribosome preparation buffer (0.1 mL per g cell pellet) to obtain the 70S ribosome extract and stored at −80 °C. The ribosome concentration was estimated by recording the absorbance at 260 nm (1 AU for a ribosome concentration of 28 nmol/L). The molecular weight of the 70S E. coli ribosome was assumed to be 2.3 MDa.
Kd was determined using a ribosome extract and cf-labeled peptides in ribosome preparation buffer. Briefly, black 384-well plates (flat bottom, Greiner Bio-One GmbH) were blocked with casein (0.5%, w/v) in phosphate buffer containing 0.05% (v/v) Tween 20 at 4 °C overnight and washed three times with phosphate buffer. A 2-fold dilution series of the ribosome extract (20 μL per well) in ribosome preparation buffer was prepared in a black 384-well plate (23 dilution steps). The cf-labeled peptide was dissolved in ribosome preparation buffer (20 μL, 40 nmol/L), added to each well, and incubated at 28 ± 1 °C. After 90 min, the fluorescence polarization was measured on a PARADIGMTM microplate reader (Beckman Coulter, Salzburg, Austria) in the top read position (λexc = 485 nm, λem = 535 nm) in triplicate on at least two different days. Data were fitted to a nonlinear, dose–response logistical transition equation [y= y0 + a/(1 + (x/x0)b)] using the Levenberg–Marquardt algorithm, with dissociation constants (Kd) represented by the x0 coefficients (GraphPad Prism for Windows v. 5.02, San Diego, CA, USA).

[2] = biological target: BW25113 ribosome extract, ribosomal binding site of Api137; experiment: Fluorescence polarization competition against cf-Api137 (Ki); set-up: species or system Escherichia coli; settings: unlabeled PrAMP against cf-labeled Api137, calculated from IC50, 95% confidence interval in brackets
Method: as §1
(§2) Ki was determined for ribosome extracts using cf-labeled and unlabeled peptides in ribosome preparation buffer. Black 384-well plates were prepared as described above. Unlabeled peptides or antibiotics (20 µL, 656 µmol/L) were added and 2-fold serially diluted in 23 wells in ribosome preparation buffer. A ribosome solution was prepared by adjusting the ribosome concentration to ~90% of the upper Kd plateau obtained for the cf-labeled peptide to be studied and added to each well (10 µL). […] The fluorescence polarization was measured on a PARADIGMTM microplate reader in the top read position (λexc = 485 nm, λem = 535 nm) in triplicate on at least two different days. […] Inhibition constants, Ki, were calculated as described by Mathias and Jung.

[3] = biological target: BW25113 ribosome extract, ribosomal binding site of Onc112; experiment: Fluorescence polarization competition against cf-Onc112 (Ki); set-up: species or system Escherichia coli; settings: unlabeled PrAMP against cf-labeled Onc112, calculated from IC50, 95% confidence interval in brackets
Method: as §1, §2

E. coli BL21 (DE3) = format: cell-based, Escherichia coli; settings: BL21, 2 h
Method: (§3) The minimal inhibitory concentrations (MIC) were determined at least twice in triplicate using a liquid broth microdilution assay in sterile 96-well plates and a total volume of 100 μL per well. Aqueous peptide solutions were serially 2-fold diluted in 25% MHBII or 33% TSB medium in a volume of 50 µL. An overnight culture was diluted in 25% MHBII or 33% TSB medium to 1.5 × 10^7 CFU/mL, and an aliquot of 50 μL was added to each well. The final cell count in each well was 7.5 × 10^6 CFU/mL. […] The turbidity of each well was measured at a wavelength of 600 nm. The MIC was defined as the lowest peptide concentration where the turbidity was identical to medium only.

E. coli BW25113 = format: cell-based, Escherichia coli; settings: for MIC, BW: BW25113, 2 h
Method: as §3

[4] = system: E. coli BW25113 ΔsbmA +psbmA_A31G/G219T; format: cell-based, Escherichia coli
Method: The minimal inhibitory concentrations (MIC) were determined at least twice in triplicate using a liquid broth microdilution assay in sterile 96-well plates and a total volume of 100 μL per well. Aqueous peptide solutions were serially 2-fold diluted in 25% MHBII or 33% TSB medium in a volume of 50 µL. An overnight culture was diluted in 25% MHBII or 33% TSB medium to 1.5 × 10^7 CFU/mL, and an aliquot of 50 μL was added to each well. The final cell count in each well was 7.5 × 10^6 CFU/mL. The plates were incubated at 37 °C for 20 ± 2 h. The turbidity of each well was measured at a wavelength of 600 nm. The MIC was defined as the lowest peptide concentration where the turbidity was identical to medium only.

Row | Compound | Kd [1] | Ki [2] | Ki [3] | MIC, 25% MHBII (E. coli BL21 (DE3)) | MIC, 33% TSB (E. coli BL21 (DE3)) | MIC, BW (E. coli BW25113) | MIC, 25% MHBII ([4]; BW25113 ΔsbmA +psbmA_A31G/G219T, 25% MHBII containing IPTG (0.1 mmol/L)) | MIC, 33% TSB ([4]; BW25113 ΔsbmA +psbmA_A31G/G219T, 33% TSB containing IPTG (0.1 mmol/L)) | MIC in the parent E. coli BL21 strain (E. coli BL21 (DE3)) | change of MIC after transformation of sbmA_A31G/G219T-harboring plasmid ([4]; compared with E. coli BW25113 ΔsbmA) | less active against BW25113 than against Rosetta DE3 pLysS (fold, from MIC) (E. coli BW25113; ratio of MIC values, 25% MHBII)
1 | CC[C@H](C)[C@H](NC(=O)[C@H](Cc1ccc(O)cc1)NC(=O)[C@@H](NC(=O)[C@@H]1CCCN1C(=O)[C@H](CCCNC(=N)N)NC(=O)[C@H](CC(N)=O)NC(=O)[C@H](CC(N)=O)NC(=O)[C@H](CCCN)N=C(N(C)C)N(C)C)C(C)C)C(=O)N1CCC[C@H]1C(=O)N[C@@H](CCCNC(=N)N)C(=O)N1CCC[C@H]1C(=O)N[C@@H](CCCNC(=N)N)C(=O)N1CCC[C@H]1C(=O)N1CCC[C@H]1C(=O)N[C@@H](Cc1c[nH]cn1)C(=O)N1CCC[C@H]1C(=O)N[C@@H](CCCNC(=N)N)C(=O)N[C@@H](CC(C)C)C(=O)O [Api137] ({Orn(α-tetramethylguanidino)}-NNRPVYIPRPRPPHPRL-OH) | 198 nM | 2 nM | 219 nM | 4 µg/mL (≈ 1.75 µM) | 2 µg/mL (≈ 0.873 µM) | 2 µg/mL (≈ 0.873 µM) | 2 µg/mL (≈ 0.873 µM) | 8 µg/mL (≈ 3.49 µM) |  |  | 
2 | CC[C@H](C)[C@H](NC(=O)[C@@H]1CCCN1C(=O)[C@H](CCCNC(=N)N)NC(=O)[C@H](CC(N)=O)NC(=O)[C@H](CC(N)=O)NC(=O)CN)C(=O)N[C@@H](Cc1ccc(O)cc1)C(=O)N[C@H](C(=O)N1CCC[C@H]1C(=O)N[C@@H](CCCNC(=N)N)C(=O)N1CCC[C@H]1C(=O)N[C@@H](CCCNC(=N)N)C(=O)N1CCC[C@H]1C(=O)N1CCC[C@H]1C(=O)N[C@@H](Cc1c[nH]cn1)C(=O)N1CCC[C@H]1C(=O)N[C@@H](CCCNC(=N)N)C(=O)N1CCC[C@H]1C(=O)N[C@H](C(=O)N[C@@H](CCCNC(=N)N)C(=O)N[C@H](C(=O)O)C(C)C)[C@@H](C)CC)[C@@H](C)CC [Api805] (H-GNNRPIYIPRPRPPHPRPIRV-OH; N-terminus assumed) | 515 nM | 1070 nM | 489 nM | 4 µg/mL (≈ 1.6 µM) | 2 µg/mL (≈ 0.799 µM) |  |  |  | 2 to 4 µg/mL | not altered | 
3 | CC[C@H](C)[C@H](NC(=O)[C@H](Cc1ccc(O)cc1)NC(=O)[C@@H](NC(=O)[C@@H]1CCCN1C(=O)[C@H](CCCNC(=N)N)NC(=O)[C@H](CC(N)=O)NC(=O)[C@H](CC(N)=O)NC(=O)[C@H](CCCN)N=C(N(C)C)N(C)C)C(C)C)C(=O)N1CCC[C@H]1C(=O)N[C@@H](CCCNC(=N)N)C(=O)N1CCC[C@H]1C(=O)N[C@@H](CCCNC(=N)N)C(=O)N1CCC[C@H]1C(=O)N1CCC[C@H]1C(=O)N[C@@H](Cc1c[nH]cn1)C(=O)N1CCC[C@H]1C(=O)N[C@@H](CCCNC(=N)N)C(=O)N[C@@H](CC(C)C)C(N)=O [Api88] ({Orn(α-tetramethylguanidino)}-NNRPVYIPRPRPPHPRL-NH2) |  |  |  |  |  | 2 µg/mL (≈ 0.873 µM) |  |  |  |  | twofold
